According to PMC12751141, “Disrupting α-Synuclein–ClpP interaction restores mitochondrial function and attenuates neuropathology in Parkinson’s disease models” (Molecular Neurodegeneration, 2025):

What was measured:
ClpP = test system: ClpP
Description: ClpP peptidase activity in vitro was measured as previously described (REF). Briefly, human recombinant ClpP (10 µM, obtained from Dr. Aaron Schimmer, Princes Margartet Cancer Centre, Canada) were incubated in the reaction buffer (50mM Tris PH 8.0, 200mM KCl, 1mM DTT, 2mM ATP) under 37 °C for 10 min. For co-incubation with αSyn, recombinant ClpP and WT or C-terminal truncated or NAC-domain truncated recombinant αSyn (S-1001-1, S-1012-1, S-1015-1, rPeptide) were pre-incubated for 30 min under room temperature. Fluorescent substrate of ClpP, ac-WLA-AMC (50 µM), were then added in the reaction buffer. The fluorescence signal was read using TECAN infinite M1000 up for 30 min at excitation/emission wavelength 345/445. ClpP peptidase activity were determined as the slope of the regression line.
(C) In vitro ClpP peptidase activity was measured in presence of TAT or CS2 peptide (50/100 µM). The fluorescence intensity of ac-WLA-AMC (50 µM), a fluorogenic substrate of ClpP, was measured (0-30 min). Quantification of ClpP activity (n = 5, one-way ANOVA with Tukey’s post-hoc test; data are mean ± SEM).

[1] = test system: αSyn-PFF-inoculated primary cortical neurons; experiment: Mitochondrial function (Mito-SOX, TMRM, ATP) in αSyn-PFF-inoculated primary cortical neurons; format: cell-based, mouse; conditions: 1 µM daily
Description: Primary cortical neurons were isolated from normal E18 mouse cortex (sex undetermined) and cultured using complete culturing kit (cat#: KTC57ECX, TransnetYX Tissue). Briefly, 100,000 cells were seeded on poly-D-lysine coated glass coverslips (PDL15mm, TransnetYX Tissue) and cultured in NbActiv1 medium (NB1, TransnetYX Tissue). Neurons were treated with sonicated human α-Syn-PFF (SPR-322, StressMarq Biosciences) starting on post-seeding Day 5 till Day 14. Starting from post-seeding Day 9, TAT or CS2 peptide was added daily at 1µM. Neurons were fixed on Day 14 and subjected for experiments.
(§1) Cells cultured on coverslips or 24-well plates were washed with DPBS and then incubated with 5 µM Mito-SOX™ Red (Invitrogen, M36008), a mitochondrial superoxide indicator, for 10 min at 37 °C. For cells cultured on coverslips, the images were visualized by microscope, and quantification of images was then carried out using NIH ImageJ software. At least 100 cells per group were counted in the analysis.
(§2) Cells cultured on coverslips or 24-well plates were washed with DPBS and then incubated with 0.25 µM Tetramethylrhodamine, methyl ester (TMRM) (Invitrogen, T668), for 20 min at 37 °C. For cells cultured on coverslips, the images were visualized by microscope, and quantification of images was then carried out using NIH Fiji ImageJ software. At least 100 cells per group were counted in the analysis.
(§3) Cells were seeded in 24-well plates, followed by the indicated treatment. The ATP level in each well was determined using the ATP assay kit according to the manufacturer’s procedures (Cayman Chemical, 700410).

[2] = test system: A53T-αSyn iPSC-derived neurons; experiment: Mitochondrial function (Mito-SOX, TMRM, ATP) in A53T-αSyn iPSC-derived neurons; format: cell-based, human
Source text: PD iPS cells lines (αSyn A53T, NN0004337, donor) and its isogenic corrected control line (NN0004344) were obtained from RUCDR Infinite Biologics. The iPS cells were differentiated into dopaminergic neuron-enriched neuronal culture with the protocol described previously. Briefly, iPS cell colonies were disassociated with accutase (Invitrogen), plated onto 6-well plates pre-coated with 2.5% Matrigel (BD Biosciences) and allowed to reach 80% confluence in mTeSR medium (Stem Cell Technology). For the first 10 days, cells were treated with SB431542 (10 µM; Tocris Bioscience) and Noggin (100 ng/ml) in Neural Media (NM) with FGF2 ([…]) and EGF ([…]). NM media contained: Neurobasal and DMEM/F12 (1:1), B-27 Supplement Minus Vitamin A (50×, Invitrogen), N2 Supplement (100X, Invitrogen), GlutaMAX (Invitrogen, 100×), 100 units/ml penicillin and 100 µg/ml streptomycin (Fisher); for the next 4 days, cells were treated with human recombinant Sonic hedgehog (SHH, 200 ng/ml) in neuronal differentiation medium. […]
as §1, §2, §3

CC(C)[C@H](NC(=O)CNC(=O)CNC(=O)CCCCCNC(=O)[C@H](CCCNC(=N)N)NC(=O)[C@H](CCCNC(=N)N)NC(=O)[C@H](CCCNC(=N)N)NC(=O)[C@H](CCC(N)=O)NC(=O)[C@H](CCCNC(=N)N)NC(=O)[C@H](CCCNC(=N)N)NC(=O)[C@H](CCCCN)NC(=O)[C@H](CCCCN)NC(=O)[C@H](CCCNC(=N)N)NC(=O)CNC(=O)[C@@H](N)Cc1ccc(O)cc1)C(=O)N[C@H](C(=O)N[C@H](C(=O)N[C@@H](C)C(=O)O)[C@@H](C)O)C(C)C [CS2, TAT-C6-GGVVTA]
ClpP peptidase activity restoration, WT αSyn (ClpP): restored ClpP peptidase activity
ClpP peptidase activity, peptide alone (ClpP): neither TAT nor CS2 alone impaired ClpP activity
ClpP peptidase activity restoration, A53T αSyn (ClpP; inhibition by A53T mutant αSyn, ac-WLA-AMC 50 µM, 0–30 min, representative of 4 experiments): restored ClpP peptidase activity
ATP content, PFF neurons ([1]; n = 4): rescued mitochondrial membrane potential and ATP content
mitochondrial ROS, PFF neurons ([1]; Mito-SOX, n = 90-100 neurons per group): reduced mitochondrial ROS
mitochondrial membrane potential, PFF neurons ([1]; TMRM, n = 90-100 neurons per group): rescued mitochondrial membrane potential
mitochondrial ROS, iPSC neurons ([2]; Mito-SOX, n = 3): reduced mitochondrial ROS
mitochondrial membrane potential, iPSC neurons ([2]; TMRM, n = 3): rescued mitochondrial membrane potential
ATP content, iPSC neurons ([2]; n = 6): rescued mitochondrial membrane potential and ATP content
